How the values were obtained:
[1] = target: HDAC1 (Homo sapiens, UniProt Q13547); assay: Selectivity profile, single dose 0.5 µM, HDAC1; type: biochemical; conditions: remaining enzyme activity; single‐dose duplicate mode at 0.5 μM; read-out: Enzyme % activity (relative to DMSO controls) at 0.5 µM, HDAC1
Description: (§1) The inhibitory profiles of 5b and 5f were evaluated against selected HDAC isoforms (HDAC1, HDAC3, HDAC4, HDAC8, and HDAC10) and PI3K isoforms (PI3Kδ, PI3Kγ, and PI3Kβ) at a fixed concentration of 0.5 µM (Table 3). […] While we explored the phenyl ring in the linker region to achieve selectivity for the HDAC6 isoform, we still observed HDAC class I inhibition. […] It is important to highlight that PI3Kδ is mainly expressed in hematopoietic system and plays roles in leukocyte signaling, T‐cell activation, and immune cell trafficking. FDA‐approved drug idelalisib is a selective PI3Kδ inhibitor in B‐cell malignancies; however, this drug is also related to disruption of the immune system, which can lead to immune manifestations, such as infections. In addition, while isoform‐selective PI3K inhibitors are well tolerated, pan‐inhibition of PI3K is less expected that compensatory mechanisms by the action of other PI3Ks can take place. Thus, a more balanced profile of PI3K inhibition can lead to an overall lack of toxicity of PI3K inhibitors.

[2] = target: PI3Kβ (Homo sapiens, UniProt P42338); assay: Selectivity profile, single dose 0.5 µM, PI3Kβ; type: biochemical; conditions: remaining enzyme activity; single‐dose duplicate mode at 0.5 μM; read-out: Enzyme % activity (relative to DMSO controls) at 0.5 µM, PI3Kβ
PI3Kβ, sequence (P42338 whole entry): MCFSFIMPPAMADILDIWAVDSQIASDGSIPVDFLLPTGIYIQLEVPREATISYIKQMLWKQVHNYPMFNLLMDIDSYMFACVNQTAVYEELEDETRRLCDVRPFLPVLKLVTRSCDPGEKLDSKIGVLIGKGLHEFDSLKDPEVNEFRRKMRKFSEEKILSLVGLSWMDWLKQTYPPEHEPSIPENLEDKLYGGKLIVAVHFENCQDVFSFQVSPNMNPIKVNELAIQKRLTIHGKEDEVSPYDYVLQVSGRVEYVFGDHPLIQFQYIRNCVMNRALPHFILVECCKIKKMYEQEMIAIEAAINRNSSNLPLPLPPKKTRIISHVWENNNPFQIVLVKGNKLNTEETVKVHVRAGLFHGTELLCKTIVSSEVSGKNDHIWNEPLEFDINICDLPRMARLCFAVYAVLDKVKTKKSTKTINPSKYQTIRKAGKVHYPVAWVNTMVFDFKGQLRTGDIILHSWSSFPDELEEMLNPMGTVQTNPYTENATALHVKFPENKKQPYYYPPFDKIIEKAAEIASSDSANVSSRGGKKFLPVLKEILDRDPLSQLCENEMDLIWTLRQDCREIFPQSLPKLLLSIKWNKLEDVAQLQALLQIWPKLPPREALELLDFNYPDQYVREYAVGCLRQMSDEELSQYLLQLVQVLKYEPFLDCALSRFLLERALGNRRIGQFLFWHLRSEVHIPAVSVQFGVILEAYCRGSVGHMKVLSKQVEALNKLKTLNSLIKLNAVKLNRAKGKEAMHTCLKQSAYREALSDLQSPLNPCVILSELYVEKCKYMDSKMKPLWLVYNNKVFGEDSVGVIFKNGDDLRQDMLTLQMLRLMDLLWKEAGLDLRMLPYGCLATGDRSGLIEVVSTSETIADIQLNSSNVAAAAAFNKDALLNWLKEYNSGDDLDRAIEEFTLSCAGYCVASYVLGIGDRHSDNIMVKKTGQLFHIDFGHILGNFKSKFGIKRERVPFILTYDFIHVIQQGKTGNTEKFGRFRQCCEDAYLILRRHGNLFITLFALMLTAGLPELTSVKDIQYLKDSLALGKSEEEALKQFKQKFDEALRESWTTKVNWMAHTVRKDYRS
PI3Kβ, sequence (P27986 whole entry partner): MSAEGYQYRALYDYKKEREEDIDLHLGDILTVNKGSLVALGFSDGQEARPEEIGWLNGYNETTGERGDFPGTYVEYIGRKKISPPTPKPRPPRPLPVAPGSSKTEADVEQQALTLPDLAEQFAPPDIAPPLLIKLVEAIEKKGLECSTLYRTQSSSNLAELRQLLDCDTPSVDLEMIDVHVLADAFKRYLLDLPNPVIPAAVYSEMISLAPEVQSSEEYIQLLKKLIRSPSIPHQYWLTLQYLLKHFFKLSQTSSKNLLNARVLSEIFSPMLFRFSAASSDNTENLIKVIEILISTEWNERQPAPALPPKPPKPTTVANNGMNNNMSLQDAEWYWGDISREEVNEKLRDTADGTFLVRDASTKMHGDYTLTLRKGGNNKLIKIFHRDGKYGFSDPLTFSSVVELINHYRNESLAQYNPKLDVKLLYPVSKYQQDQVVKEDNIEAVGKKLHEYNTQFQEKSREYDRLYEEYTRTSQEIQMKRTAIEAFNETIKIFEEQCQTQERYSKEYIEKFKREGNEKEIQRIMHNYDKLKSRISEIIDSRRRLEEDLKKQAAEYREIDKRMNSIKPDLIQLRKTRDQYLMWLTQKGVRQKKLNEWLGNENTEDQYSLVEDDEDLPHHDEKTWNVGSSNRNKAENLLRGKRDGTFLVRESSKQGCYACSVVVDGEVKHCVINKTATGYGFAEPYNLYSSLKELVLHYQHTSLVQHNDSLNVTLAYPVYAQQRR
Description: as §1

[3] = tested on: HDAC6 (acetylated α‐tubulin); assay: Western blot, acetylated α-tubulin in treated cells; type: cell-based; conditions: LY2, JIMT1, MDA‐MB‐231 cells, 24 h; seen at 3 µM, further increasing at 10 µM
Description: FIGURE 4 Cell‐based evaluation of compounds 5a– 5f. Dose‐dependent effects of compound treatment (5a‐5f) on breast cancer cell viability across JIMT1 (A), MDA‐MB‐231 (B), and LY2 (C). Cell‐based evaluation of HDAC and PI3K inhibition by compounds 5b and 5f by Western blot. JIMT1 cells were treated for 24 h with compounds 5b (D) and 5f (E) at the concentrations of 1, 3, and 10 µM or with vehicle control (0.1% DMSO). Protein expression levels were analyzed by western blot using antibodies against acetylated α‐tubulin, acetyl H3 (H3K9Ac and H3K14Ac), phospho‐AKT (p‐AKT), and total AKT. GAPDH served as a loading control.
To investigate if 5b and 5f were acting as multitarget inhibitors, we evaluated the modulation of HDAC6 and PI3K signaling pathways by western blot analysis (Figure 4D,E). […]
Total protein samples were extracted from treated cells using a lysis buffer containing 0.1% IGEPAL CA‐630 (I8896, Merck), 0.5% deoxycholic acid (D2510, Merck), and 0.1% SDS (L3771, Merck), freshly supplemented with protease and phosphatase inhibitor cocktail (78442, Thermo Fisher Scientific). Protein concentrations were quantified using the Pierce BCA Protein Assay Kit (23227, Thermo Fisher Scientific) according to the manufacturer's instructions. […] Chemiluminescence signals were detected using the Amersham Imager 680 Imaging System. […]

HDAC1, sequence (Q13547 whole entry, canonical isoform): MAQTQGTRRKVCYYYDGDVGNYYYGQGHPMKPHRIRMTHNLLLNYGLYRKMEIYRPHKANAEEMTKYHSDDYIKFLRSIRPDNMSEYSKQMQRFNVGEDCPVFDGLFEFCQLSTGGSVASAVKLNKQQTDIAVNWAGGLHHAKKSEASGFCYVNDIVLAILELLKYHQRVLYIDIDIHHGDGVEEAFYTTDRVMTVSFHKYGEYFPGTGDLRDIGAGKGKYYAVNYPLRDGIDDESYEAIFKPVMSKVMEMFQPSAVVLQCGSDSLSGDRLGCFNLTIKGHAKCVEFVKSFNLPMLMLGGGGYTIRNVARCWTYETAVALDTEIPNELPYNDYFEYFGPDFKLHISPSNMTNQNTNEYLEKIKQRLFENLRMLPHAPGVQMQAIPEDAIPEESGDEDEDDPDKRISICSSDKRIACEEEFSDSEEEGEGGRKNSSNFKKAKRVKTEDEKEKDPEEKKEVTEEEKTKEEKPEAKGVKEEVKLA

| SMILES | remaining activity at 0.5 µM [1] | remaining activity at 0.5 µM [2] | Acetylated α‐tubulin level, western blot [3] |
| --- | --- | --- | --- |
| O=C(NO)c1ccc(CNc2nc(-c3cccc(O)c3)nc(N3CCOCC3)n2)cc1 [Compound 5b, N‐Hydroxy‐4‐(((4‐(3‐Hydroxyphenyl)‐6‐Morpholino‐1,3,5‐Triazin‐2‐yl)Amino)Methyl)Benzamide] | 35.9% | 40.1% | accumulation of acetylated α‐tubulin |
| COc1ccc(-c2nc(NCc3ccc(C(=O)NO)cc3)nc(N3CCOCC3)n2)cn1 [Compound 5f, N‐Hydroxy‐4‐(((4‐(6‐Methoxypyridin‐3‐yl)‐6‐Morpholino‐1,3,5‐Triazin‐2‐yl)Amino)Methyl)Benzamide] | 35.7% | 86.9% | accumulation of acetylated α‐tubulin |

From PMC13110364, “Design, Synthesis, and Biological Evaluation of Novel Triazine‐Based Dual Histone Deacetylase/phosphatidylinositol 3‐kinase Inhibitors for Breast Cancer Therapy” (Chemmedchem, 2026)
